Results reported in PMC5907918 (Biochemistry, 2017).

What was measured:
[1] = target: histidine phosphatase domain of human Sts-1 (Sts-1HP) (human) (UniProt Q8TF42); experiment: crystal structure
[2] = target: T1, human Sts-1HP (Homo sapiens, UniProt Q8TF42); experiment: Steady state kinetics of phosphatase substrates, human Sts-1HP; assay type: biochemical; details: substrate as labelled, 298 K
[3] = target: T2, human Sts-2HP (Homo sapiens, UniProt P57075); experiment: Steady state kinetics of phosphatase substrates, human Sts-2HP; assay type: biochemical; details: substrate as labelled, 298 K
T2 sequence (P57075 393-657): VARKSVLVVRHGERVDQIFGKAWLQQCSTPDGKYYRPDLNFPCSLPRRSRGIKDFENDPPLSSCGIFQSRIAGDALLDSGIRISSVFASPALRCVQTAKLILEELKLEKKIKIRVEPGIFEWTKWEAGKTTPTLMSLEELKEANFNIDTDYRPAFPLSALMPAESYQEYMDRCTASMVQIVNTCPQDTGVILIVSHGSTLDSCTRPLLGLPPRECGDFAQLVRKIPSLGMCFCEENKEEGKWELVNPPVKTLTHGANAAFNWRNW

[4] = system: PTP-1B; details: cited from earlier work
[5] = target: T1, human Sts-1HP; experiment: Inhibition of Sts-1HP phosphatase activity; assay type: biochemical; details: known phosphatase inhibitors tested
[6] = target: Full-length Sts-1 (Homo sapiens, UniProt Q8TF42); experiment: Steady state kinetics of phosphatase substrates, full-length Sts-1; assay type: biochemical; details: substrate as labelled, 298 K
Full-length Sts-1, sequence (Q8TF42 whole entry): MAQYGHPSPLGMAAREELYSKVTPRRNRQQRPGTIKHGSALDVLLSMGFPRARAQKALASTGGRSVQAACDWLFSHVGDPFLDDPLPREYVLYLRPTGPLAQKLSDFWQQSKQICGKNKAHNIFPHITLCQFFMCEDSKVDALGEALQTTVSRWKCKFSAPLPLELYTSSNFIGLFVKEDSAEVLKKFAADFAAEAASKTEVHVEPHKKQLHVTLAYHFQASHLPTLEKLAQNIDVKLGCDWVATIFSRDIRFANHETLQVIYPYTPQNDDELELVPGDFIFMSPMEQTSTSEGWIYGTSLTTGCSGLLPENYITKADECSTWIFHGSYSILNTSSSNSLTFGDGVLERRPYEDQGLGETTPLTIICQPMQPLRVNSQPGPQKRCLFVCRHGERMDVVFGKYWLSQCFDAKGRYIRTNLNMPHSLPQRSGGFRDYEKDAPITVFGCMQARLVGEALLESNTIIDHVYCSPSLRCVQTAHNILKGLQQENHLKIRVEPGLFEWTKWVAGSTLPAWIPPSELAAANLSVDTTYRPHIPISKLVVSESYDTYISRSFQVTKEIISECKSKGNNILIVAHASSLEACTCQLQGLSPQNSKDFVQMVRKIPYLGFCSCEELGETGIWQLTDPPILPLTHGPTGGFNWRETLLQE

T1 sequence (Q8TF42 380-647): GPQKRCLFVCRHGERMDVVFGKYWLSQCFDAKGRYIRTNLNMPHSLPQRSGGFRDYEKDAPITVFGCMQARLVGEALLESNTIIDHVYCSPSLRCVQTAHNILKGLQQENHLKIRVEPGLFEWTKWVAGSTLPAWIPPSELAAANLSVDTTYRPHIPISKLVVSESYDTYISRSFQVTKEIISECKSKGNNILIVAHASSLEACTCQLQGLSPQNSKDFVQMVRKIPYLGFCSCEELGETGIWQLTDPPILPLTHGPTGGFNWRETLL

histidine phosphatase domain of human Sts-1 (Sts-1HP) (from UniProt Q8TF42 369-636) (domain or fragment)
stoichiometry N [1]: 2

COc1ccc2c(c1)Oc1cc(OP(=O)(O)O)ccc1C21OC(=O)c2ccccc21 (stereo not drawn) [OMFP, 3-O-Methylfluorescein phosphate]
Km [2]: 190 ± 30 µM | kcat [2]: 786.1 ± 52.4 s⁻¹ | Km [3]: 1070 ± 240 µM | kcat [3]: 5.86 ± 0.78 s⁻¹

O=C1C(=NNc2ccc(S(=O)(=O)O)cc2)C(c2ccc([N+](=O)[O-])cc2)=NN1c1ccccc1 [PHPS1, 4-[2-[1,5-dihydro-3-(4-nitrophenyl)-5-oxo-1-phenyl-4H-pyrazol-4-ylidene]hydrazinyl]-benzenesulfonic acid]
IC50 [4]: 19 µM | inhibition of Sts-1HP phosphatase activity (in words) [5]: potent competitive inhibitor

Cc1cc(=O)oc2c(F)c(OP(=O)(O)O)c(F)cc12 [DifMUP, 6,8-Difluoro-4-Methylumbelliferyl Phosphate]
Km [2]: 2 µM | kcat [2]: 100.68 s⁻¹ | Km [3]: 850 ± 230 µM | kcat [3]: 4.92 ± 0.76 s⁻¹

Nc1ccc(S(=O)(=O)O)cc1 [Sulfanilic acid]
inhibition of Sts-1HP phosphatase activity (in words) [5]: modest inhibitor

CN(N=O)c1ccc(O)c(O)c1 [Methyl-dephostatin, methyl-3,4-dephostatin]
IC50 [4]: 3.5 µM | inhibition of Sts-1HP phosphatase activity (in words) [5]: not affected

O=P(O)(O)OC(CO)CO [β-glycerophosphate]
inhibition of Sts-1HP phosphatase activity (in words) [5]: did not show any observable level of inhibition

O=[N+]([O-])c1ccc(OP(=O)(O)O)cc1 [pNPP, para-nitrophenyl phosphate]
Km [2]: 2640 ± 480 µM | kcat [2]: 13.62 ± 0.63 s⁻¹ | Km [3]: 5610 ± 1690 µM | kcat [3]: 1.23 ± 0.15 s⁻¹ | Km [6]: 3310 ± 270 µM | kcat [6]: 158.6 ± 6.48 s⁻¹
